Tested on: mildew of wheat (Erysiphe graminis forma specialis tritici)
Assay: Action against mildew of wheat (wheat seedlings cv. Kanzler, protective spray)
Type: in vivo
Settings: single active ingredient, wheat leaves, 7 days after inoculation
Method: The active compounds, separately or together, are formulated as a 10% strength emulsion in a mixture of 70% by weight of cyclohexanone, 20% by weight of Nekanil® LN (Lutensol® AP6, wetting agent having emulsifying and dispersing action based on ethoxylated alkylphenols) and 10% by weight of Emulphor® EL (Emulan® EL, emulsifier based on ethoxylated fatty alcohols) and diluted with water to the desired concentration.
Evaluation is carried out by determining the infected leaf areas in percent. These percentages are converted into efficacies. The expected efficacies of the mixtures of the active compounds are determined using Colby's formula [R. S. Colby, Weeds 15, 20-22 (1967)] and compared with the observed efficacies.
At an efficacy of 0, the infection level of the treated plants corresponds to that of the untreated control plants; at an efficacy of 100, the treated plants are not infected.
Leaves of wheat seedlings of the cultivar “Kanzler”, grown in pots, were sprayed to run-off point with an aqueous formulation of active ingredient which had been prepared using a stock solution comprising 10% of active ingredient, 63% of cyclohexanone and 27% of emulsifier, and 24 h after the spraycoating had dried on the leaves were dusted with spores of mildew of wheat (Erysiphe graminis forma specialis tritici). The test plants were subsequently placed in climatized chambers at 20-24° C. and 60-90% relative atmospheric humidity for 7 days. The extent of the development of the disease on the leaves was then evaluated visually.
The visually determined values for the percentage of diseased leaf area were converted into efficacies in % of the untreated control. An efficacy of 0 means the same disease level as in the untreated control, an efficacy of 100 means a disease level of 0%. The expected efficacies for the active ingredient combinations were determined using Colby's formula (Colby, S. R. “Calculating synergistic and antagonistic responses of herbicide combinations”, Weeds, 15, pp. 20-22, 1967) and compared with the observed efficacies. […]

## Fc1ccc(Oc2ccnc3cc(Cl)cc(Cl)c23)cc1 [I.78, quinoxyfen]
conc. 0.06 ppm
  Efficacy in % of the untreated control: 0%
conc. 0.25 ppm
  Efficacy in % of the untreated control: 0%
conc. 1 ppm
  Efficacy in % of the untreated control: 33%
